According to publication PMC3199943, “Screening the MayBridge Rule of 3 Fragment Library for Compounds That Interact with the Trypanosoma brucei myo-Inositol-3-Phosphate Synthase and/or Show Trypanocidal Activity” (Molecular Biology International, 2011):

Molecular target: T1, TbINO1 (Trypanosoma brucei brucei, UniProt Q5QQ46)
T1 sequence (Q5QQ46 1-528): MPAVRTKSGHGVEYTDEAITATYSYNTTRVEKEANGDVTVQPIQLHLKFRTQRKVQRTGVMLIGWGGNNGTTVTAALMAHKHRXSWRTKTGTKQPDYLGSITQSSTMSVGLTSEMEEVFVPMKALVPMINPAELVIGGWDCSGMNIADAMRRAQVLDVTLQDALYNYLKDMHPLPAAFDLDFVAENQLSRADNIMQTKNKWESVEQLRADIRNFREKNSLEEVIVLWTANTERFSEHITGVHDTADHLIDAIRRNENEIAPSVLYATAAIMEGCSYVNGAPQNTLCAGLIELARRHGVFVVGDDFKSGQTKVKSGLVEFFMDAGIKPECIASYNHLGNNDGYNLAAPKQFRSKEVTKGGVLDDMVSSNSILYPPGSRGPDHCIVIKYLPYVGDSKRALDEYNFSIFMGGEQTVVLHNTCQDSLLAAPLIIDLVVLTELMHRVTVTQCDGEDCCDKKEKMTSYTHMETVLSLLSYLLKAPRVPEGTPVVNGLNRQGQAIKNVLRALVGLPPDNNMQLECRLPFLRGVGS
Assay: biochemical
Format: binding
Conditions: Supplementary Table 1; compound 1mM; mean ± SD from Boltzman curve fitting

Tb Ino1 Tm Shift [˚C]	SMILES
0.13 ± 0.07 °C	CC(C)(N)CN1CCCC1 [compound 142, 2‐methyl‐1‐(1‐pyrrolidinyl)‐2‐propanamine]
0.92 ± 0.09 °C	O=C1COc2cc(O)ccc21 [compound 182, 6‐hydroxy‐2,3‐dihydrobenzo[b]furan‐3‐one]
0.14 ± 0 °C	CC(=O)c1cc(C)ccc1O [compound 184, 1‐(2‐hydroxy‐5‐methylphenyl)ethan‐1‐one]

Same assay, conditions: Supplementary Table 1; compound 1mM; mean ± SD from Boltzman curve fitting; read-out: Tb Ino1 Tm Shift [˚C]

SMILES	ΔTm at 1000 µM
CC(=O)c1ccc(C#N)cc1 [compound 155, 4‐acetylbenzonitrile]	0.19 ± 0.06 °C

Same assay, conditions: read-out: Tb Ino1 Tm Shift [˚C]

ΔTm at 1000 µM	SMILES
0.26 ± 0.08 °C	Cc1cc(O)cc(C)c1C#N [compound 164, 4‐hydroxy‐2,6‐dimethylbenzonitrile]
0.06 ± 0.07 °C	Cc1cccc2c1NCCC2 [compound 166, 8‐methyl‐1,2,3,4‐tetrahydroquinoline]
0.39 ± 0.08 °C	OCc1ccc2occc2c1 [compound 168, 1‐benzofuran‐5‐ylmethanol]
0.04 ± 0.07 °C	OCc1nc2ccccc2[nH]1 [compound 169, 1H‐benzimidazol‐2‐ylmethanol]
0.15 ± 0.07 °C	OCc1ccc2[nH]cnc2c1 [compound 170, 1H‐benzimidazol‐5‐ylmethanol]
0.84 ± 0.09 °C	OCc1ccc2nccn2c1 [compound 171, imidazo[1,2‐a]pyridin‐6‐ylmethanol]

More lines, now with the values behind:

SMILES	ΔTm at 1000 µM
OCc1ccccc1Cl [compound 143, (2‐chlorophenyl)methanol]	0.46 ± 0.05 °C
CNc1ccc(F)cc1F [compound 144, N1‐methyl‐2,4‐difluoroaniline]	1.09 ± 0.06 °C
Cc1ncsc1C(=O)O [compound 145, 4‐Methyl‐thiazole‐5‐carboxylic acid]	0.01 ± 0.07 °C
Cc1nc(C(=O)O)cs1 [compound 146, 2‐methyl‐1,3‐thiazole‐4‐carboxylic acid]	0.1 ± 0.08 °C
Cc1nc(C)c(CO)s1 [compound 147, (2,4‐dimethyl‐1,3‐thiazol‐5‐yl)methanol]	0.14 ± 0.08 °C
NC(=S)c1ccsc1 [compound 148, thiophene‐3‐carbothioamide]	0.78 ± 0.08 °C
c1cncc(-n2cccc2)c1 [compound 151, 3‐(1H‐pyrrol‐1‐yl)pyridine]	0.43 ± 0.06 °C
Nc1cc2ccccc2cn1 [compound 153, isoquinolin‐3‐amine]	0.27 ± 0.06 °C
c1ccc(-c2cnco2)cc1 [compound 156, 5‐phenyl‐1,3‐oxazole]	0.95 ± 0.06 °C
CC1Cc2ccccc2C1=O (stereo not drawn) [compound 157, 2‐methylindan‐1‐one]	0.14 ± 0.07 °C
NC(=S)N1CCOCC1 [compound 159, morpholine‐4‐carbothioamide]	0.21 ± 0.05 °C
Oc1ccc(F)c(Cl)c1 [compound 160, 3‐chloro‐4‐fluorophenol]	0.02 ± 0.05 °C

Test system: A549 cells
Assay: Cytotoxicity against A549 cells, Alamar Blue
Format: cell-based
Conditions: Homo sapiens, A549, 65 h; Supplementary Table 1; compound 0.5 mM; percentage of controls (n=1)
How it was run: (§1)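 Viability by Alamar Blue (5 h) after ~65 h drug treatment; seeding density 2 × 10^4 cells/well in DMEM supplemented with 10% FCS and 2 mM L-Glutamine.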

SMILES	viability at 500 µM
OCc1ccccc1Cl [compound 143, (2‐chlorophenyl)methanol]	109%
CNc1ccc(F)cc1F [compound 144, N1‐methyl‐2,4‐difluoroaniline]	110%
Cc1ncsc1C(=O)O [compound 145, 4‐Methyl‐thiazole‐5‐carboxylic acid]	114%
Cc1nc(C(=O)O)cs1 [compound 146, 2‐methyl‐1,3‐thiazole‐4‐carboxylic acid]	109%
Cc1nc(C)c(CO)s1 [compound 147, (2,4‐dimethyl‐1,3‐thiazol‐5‐yl)methanol]	118%
NC(=S)c1ccsc1 [compound 148, thiophene‐3‐carbothioamide]	99.6%
c1cncc(-n2cccc2)c1 [compound 151, 3‐(1H‐pyrrol‐1‐yl)pyridine]	90.1%
Nc1cc2ccccc2cn1 [compound 153, isoquinolin‐3‐amine]	118%
CC(=O)c1ccc(C#N)cc1 [compound 155, 4‐acetylbenzonitrile]	131%
c1ccc(-c2cnco2)cc1 [compound 156, 5‐phenyl‐1,3‐oxazole]	104%
CC1Cc2ccccc2C1=O (stereo not drawn) [compound 157, 2‐methylindan‐1‐one]	126%
NC(=S)N1CCOCC1 [compound 159, morpholine‐4‐carbothioamide]	109%
Oc1ccc(F)c(Cl)c1 [compound 160, 3‐chloro‐4‐fluorophenol]	77.4%
Cc1cc(O)cc(C)c1C#N [compound 164, 4‐hydroxy‐2,6‐dimethylbenzonitrile]	90%
Cc1cccc2c1NCCC2 [compound 166, 8‐methyl‐1,2,3,4‐tetrahydroquinoline]	76%
OCc1ccc2occc2c1 [compound 168, 1‐benzofuran‐5‐ylmethanol]	75.1%
OCc1nc2ccccc2[nH]1 [compound 169, 1H‐benzimidazol‐2‐ylmethanol]	81.7%
OCc1ccc2[nH]cnc2c1 [compound 170, 1H‐benzimidazol‐5‐ylmethanol]	92%
OCc1ccc2nccn2c1 [compound 171, imidazo[1,2‐a]pyridin‐6‐ylmethanol]	99.4%

Same assay, conditions: Supplementary Table 1; compound 0.5 mM; percentage of controls (n=1)

SMILES	A549 Cells Alamar Blue
CC(C)(N)CN1CCCC1 [compound 142, 2‐methyl‐1‐(1‐pyrrolidinyl)‐2‐propanamine]	96.3 percentage of controls
O=C1COc2cc(O)ccc21 [compound 182, 6‐hydroxy‐2,3‐dihydrobenzo[b]furan‐3‐one]	65.6 percentage of controls
CC(=O)c1cc(C)ccc1O [compound 184, 1‐(2‐hydroxy‐5‐methylphenyl)ethan‐1‐one]	53.1 percentage of controls

Test system: HeLa cells
Assay: cells
Conditions: Homo sapiens, HeLa, 65 h, read-out: HeLa Cells Alamar Blue
How it was run: as §1

SMILES	viability at 500 µM
OCc1ccccc1Cl [compound 143, (2‐chlorophenyl)methanol]	93.3 ± 6.6%
CNc1ccc(F)cc1F [compound 144, N1‐methyl‐2,4‐difluoroaniline]	79.3 ± 10.3%
Cc1ncsc1C(=O)O [compound 145, 4‐Methyl‐thiazole‐5‐carboxylic acid]	90.6 ± 16.1%
Cc1nc(C(=O)O)cs1 [compound 146, 2‐methyl‐1,3‐thiazole‐4‐carboxylic acid]	87 ± 6.4%
Cc1nc(C)c(CO)s1 [compound 147, (2,4‐dimethyl‐1,3‐thiazol‐5‐yl)methanol]	93.6 ± 4.3%
NC(=S)c1ccsc1 [compound 148, thiophene‐3‐carbothioamide]	92.3 ± 7%
c1cncc(-n2cccc2)c1 [compound 151, 3‐(1H‐pyrrol‐1‐yl)pyridine]	90.3 ± 6%
Nc1cc2ccccc2cn1 [compound 153, isoquinolin‐3‐amine]	88.5 ± 16.5%
CC(=O)c1ccc(C#N)cc1 [compound 155, 4‐acetylbenzonitrile]	87.3 ± 16.6%
c1ccc(-c2cnco2)cc1 [compound 156, 5‐phenyl‐1,3‐oxazole]	77.5 ± 18.3%
CC1Cc2ccccc2C1=O (stereo not drawn) [compound 157, 2‐methylindan‐1‐one]	94.7 ± 3.5%
NC(=S)N1CCOCC1 [compound 159, morpholine‐4‐carbothioamide]	93.8 ± 9.3%
Oc1ccc(F)c(Cl)c1 [compound 160, 3‐chloro‐4‐fluorophenol]	94.9 ± 15.3%
Cc1cc(O)cc(C)c1C#N [compound 164, 4‐hydroxy‐2,6‐dimethylbenzonitrile]	55.8 ± 12.1%
Cc1cccc2c1NCCC2 [compound 166, 8‐methyl‐1,2,3,4‐tetrahydroquinoline]	95.5 ± 1.6%
OCc1ccc2occc2c1 [compound 168, 1‐benzofuran‐5‐ylmethanol]	120 ± 11.4%
OCc1nc2ccccc2[nH]1 [compound 169, 1H‐benzimidazol‐2‐ylmethanol]	121 ± 15%
OCc1ccc2[nH]cnc2c1 [compound 170, 1H‐benzimidazol‐5‐ylmethanol]	98.3 ± 4.2%
OCc1ccc2nccn2c1 [compound 171, imidazo[1,2‐a]pyridin‐6‐ylmethanol]	94.1 ± 15.6%

Same assay, conditions: Supplementary Table 1; compound 0.5 mM; percentage of controls; mean ± SD (n=3) or SE (n=2)

SMILES	HeLa Cells Alamar Blue
CC(C)(N)CN1CCCC1 [compound 142, 2‐methyl‐1‐(1‐pyrrolidinyl)‐2‐propanamine]	89.9 ± 8.9 percentage of controls
O=C1COc2cc(O)ccc21 [compound 182, 6‐hydroxy‐2,3‐dihydrobenzo[b]furan‐3‐one]	119.6 ± 2.4 percentage of controls
CC(=O)c1cc(C)ccc1O [compound 184, 1‐(2‐hydroxy‐5‐methylphenyl)ethan‐1‐one]	91.7 ± 11.6 percentage of controls
